# Test system: MV-4-11 cells
# Experiment: Gene expression microarray analysis (Affymetrix PrimeView) and GSEA
# Assay type: cell-based, human
# Parameters: RFU PODN (11730768_x_at) / Fold change /veh PODN (11730768_x_at) / RFU LINC00158 (11744669_a_at) / Fold change /veh LINC00158 (11744669_a_at) / RFU DUSP10 (11751237_a_at) / Fold change /veh DUSP10 (11751237_a_at) / RFU ID3 (11757404_x_at) / Fold change /veh ID3 (11757404_x_at) / RFU PLEKHG5 (11737974_s_at) / Fold change /veh PLEKHG5 (11737974_s_at) / RFU LRRC4B (11730491_at) / Fold change /veh LRRC4B (11730491_at) / RFU GIMAP4 (11747438_a_at) / Fold change /veh GIMAP4 (11747438_a_at) / RFU KRT8 (11758183_x_at) / Fold change /veh KRT8 (11758183_x_at) / RFU CNN1 (11734310_a_at) / Fold change /veh CNN1 (11734310_a_at) / RFU VPS37D (11726825_at) / Fold change /veh VPS37D (11726825_at) / RFU C10orf10 (11716522_x_at) / Fold change /veh C10orf10 (11716522_x_at) / RFU KIR2DL2 /// KIR2DL4 /// KIR2DL5A /// KIR2DL5B /// KIR2DS1 /// KIR2DS2 /// KIR2DS3 /// KIR2DS4 /// KIR3DL3 /// KIR3DL3 /// KIR3DS1 (11738374_at) / Fold change /veh KIR2DL2 /// KIR2DL4 /// KIR2DL5A /// KIR2DL5B /// KIR2DS1 /// KIR2DS2 /// KIR2DS3 /// KIR2DS4 /// KIR3DL3 /// KIR3DL3 /// KIR3DS1 (11738374_at) / RFU C1QL1 (11718748_at) / Fold change /veh C1QL1 (11718748_at) / RFU TMPRSS4 (11747572_a_at) / Fold change /veh TMPRSS4 (11747572_a_at) / RFU HAMP (11756126_x_at) / Fold change /veh HAMP (11756126_x_at) / RFU RNFT2 (11725882_a_at) / Fold change /veh RNFT2 (11725882_a_at) / RFU NR4A2 (11747474_a_at) / Fold change /veh NR4A2 (11747474_a_at) / RFU ABCC12 (11746883_a_at) / Fold change /veh ABCC12 (11746883_a_at) / RFU TMEM136 (11760407_x_at) / Fold change /veh TMEM136 (11760407_x_at) / RFU CLDN22 /// WWC2 (11732394_at) / Fold change /veh CLDN22 /// WWC2 (11732394_at) / RFU HLA-DPB1 (11760878_x_at) / Fold change /veh HLA-DPB1 (11760878_x_at) / RFU SPINT1 (11716480_a_at) / Fold change /veh SPINT1 (11716480_a_at) / RFU GAP43 (11754022_s_at) / Fold change /veh GAP43 (11754022_s_at) / RFU A4GNT (11735810_at) / Fold change /veh A4GNT (11735810_at) / RFU PRB3 (11715151_x_at) / Fold change /veh PRB3 (11715151_x_at) / RFU TUBB4B (11761932_at) / Fold change /veh TUBB4B (11761932_at) / RFU CAPN14 (11732068_a_at) / Fold change /veh CAPN14 (11732068_a_at) / RFU TMCC2 (11721928_a_at) / Fold change /veh TMCC2 (11721928_a_at) / RFU IRGQ (11745062_a_at) / Fold change /veh IRGQ (11745062_a_at) / RFU FAM174B (11720279_a_at) / Fold change /veh FAM174B (11720279_a_at) / RFU TMPRSS4 (11748680_a_at) / Fold change /veh TMPRSS4 (11748680_a_at) / RFU FAM212B (11763350_a_at) / Fold change /veh FAM212B (11763350_a_at) / RFU PLEKHG5 (11743358_a_at) / Fold change /veh PLEKHG5 (11743358_a_at) / RFU ZSCAN30 (11745921_a_at) / Fold change /veh ZSCAN30 (11745921_a_at) / RFU CMKLR1 (11741424_a_at) / Fold change /veh CMKLR1 (11741424_a_at) / RFU LOC101060620 /// MAPK8IP1 (11723275_at) / Fold change /veh LOC101060620 /// MAPK8IP1 (11723275_at) / RFU SPTSSB (11747773_x_at) / Fold change /veh SPTSSB (11747773_x_at) / RFU PRSS12 (11739890_at) / Fold change /veh PRSS12 (11739890_at) / RFU BIN1 (11741810_x_at) / Fold change /veh BIN1 (11741810_x_at) / RFU WNT11 (11732464_a_at) / Fold change /veh WNT11 (11732464_a_at) / RFU C10orf10 (11716521_a_at) / Fold change /veh C10orf10 (11716521_a_at) / RFU C5orf56 (11738089_at) / Fold change /veh C5orf56 (11738089_at) / RFU CYB561 (11721691_x_at) / Fold change /veh CYB561 (11721691_x_at) / RFU ANKRD19P (11752326_a_at) / Fold change /veh ANKRD19P (11752326_a_at) / RFU OR2T12 /// OR2T33 /// OR2T8 (11738714_s_at) / Fold change /veh OR2T12 /// OR2T33 /// OR2T8 (11738714_s_at) / RFU VCAN (11748164_a_at) / Fold change /veh VCAN (11748164_a_at) / RFU JSRP1 (11732532_at) / Fold change /veh JSRP1 (11732532_at) / RFU KRTAP10-11 (11738290_x_at) / Fold change /veh KRTAP10-11 (11738290_x_at) / RFU MYO3A (11730013_a_at) / Fold change /veh MYO3A (11730013_a_at) / RFU EBF3 (11725865_a_at) / Fold change /veh EBF3 (11725865_a_at) / RFU CAMK2N1 (11719241_x_at) / Fold change /veh CAMK2N1 (11719241_x_at) / RFU C5orf56 (11738088_a_at) / Fold change /veh C5orf56 (11738088_a_at) / RFU OLFML3 (11715873_a_at) / Fold change /veh OLFML3 (11715873_a_at) / RFU LOC100653217 /// NTM (11731650_a_at) / Fold change /veh LOC100653217 /// NTM (11731650_a_at) / RFU MAPK11 (11762145_a_at) / Fold change /veh MAPK11 (11762145_a_at) / RFU FIZ1 (11724087_x_at) / Fold change /veh FIZ1 (11724087_x_at) / RFU OASL (11726364_x_at) / Fold change /veh OASL (11726364_x_at) / RFU SOX15 (11748057_x_at) / Fold change /veh SOX15 (11748057_x_at) / RFU CD79A (11719716_a_at) / Fold change /veh CD79A (11719716_a_at) / RFU HIST1H1D (11736915_at) / Fold change /veh HIST1H1D (11736915_at) / RFU CASKIN2 (11723855_a_at) / Fold change /veh CASKIN2 (11723855_a_at) / RFU LOC730098 (11760151_x_at) / Fold change /veh LOC730098 (11760151_x_at) / RFU OR4N2 (11742367_at) / Fold change /veh OR4N2 (11742367_at) / RFU PRRT2 (11749266_a_at) / Fold change /veh PRRT2 (11749266_a_at) / RFU SNX32 (11753110_a_at) / Fold change /veh SNX32 (11753110_a_at) / RFU CDHR5 (11726645_a_at) / Fold change /veh CDHR5 (11726645_a_at) / RFU RCAN1 (11760418_a_at) / Fold change /veh RCAN1 (11760418_a_at) / RFU FAM167A (11723789_a_at) / Fold change /veh FAM167A (11723789_a_at) / RFU FAM26E (11764081_at) / Fold change /veh FAM26E (11764081_at) / RFU ISYNA1 (11749810_s_at) / Fold change /veh ISYNA1 (11749810_s_at) / RFU ACY1 (11761880_at) / Fold change /veh ACY1 (11761880_at) / RFU 11764098_at / Fold change /veh 11764098_at / RFU SAMD14 (11745864_x_at) / Fold change /veh SAMD14 (11745864_x_at) / RFU NPB (11741838_a_at) / Fold change /veh NPB (11741838_a_at) / RFU TMPRSS6 (11731388_a_at) / Fold change /veh TMPRSS6 (11731388_a_at) / RFU KRTAP10-2 (11738614_at) / Fold change /veh KRTAP10-2 (11738614_at) / RFU ARHGAP8 /// PRR5-ARHGAP8 (11727945_x_at) / Fold change /veh ARHGAP8 /// PRR5-ARHGAP8 (11727945_x_at) / RFU KRTAP5-7 /// NADSYN1 (11734609_at) / Fold change /veh KRTAP5-7 /// NADSYN1 (11734609_at) / RFU RASL12 (11751679_a_at) / Fold change /veh RASL12 (11751679_a_at) / RFU CDKN2B (11736163_a_at) / Fold change /veh CDKN2B (11736163_a_at) / RFU PRF1 (11729649_at) / Fold change /veh PRF1 (11729649_at) / RFU, ZNF638 /// ZNF638-IT1 / Fold change vs veh, ZNF638 /// ZNF638-IT1 / RFU, PANK3 / Fold change vs veh, PANK3 / RFU, SH3YL1 / Fold change vs veh, SH3YL1 / RFU, ZEB2 / Fold change vs veh, ZEB2 / RFU, NRIP1 / Fold change vs veh, NRIP1 / RFU, PTTG1IP / Fold change vs veh, PTTG1IP / RFU, CAPN2 / Fold change vs veh, CAPN2 / RFU, MED14 / Fold change vs veh, MED14 / RFU, SNORA58 / Fold change vs veh, SNORA58 / RFU, C1orf63 / Fold change vs veh, C1orf63 / RFU, LRRFIP1 / Fold change vs veh, LRRFIP1 / RFU, NDUFAF7 / Fold change vs veh, NDUFAF7 / RFU, SLC12A2 / Fold change vs veh, SLC12A2 / RFU, IBTK / Fold change vs veh, IBTK / RFU, ESF1 / Fold change vs veh, ESF1 / Fold change vs veh, TMEM50B / RFU, TAOK1 / Fold change vs veh, TAOK1 / RFU, ACBD3 / Fold change vs veh, ACBD3 / RFU, TMA16 / Fold change vs veh, TMA16 / RFU, RWDD3 / Fold change vs veh, RWDD3 / RFU, BCAT1 / Fold change vs veh, BCAT1 / RFU, EDEM3 / Fold change vs veh, EDEM3 / RFU, TMEM33 / Fold change vs veh, TMEM33 / RFU, WDR75 / Fold change vs veh, WDR75 / RFU, AHCTF1 / Fold change vs veh, AHCTF1 / RFU, TFRC / Fold change vs veh, TFRC / RFU, ZDHHC17 / Fold change vs veh, ZDHHC17 / RFU, NOM1 / Fold change vs veh, NOM1 / RFU, ARL8B / Fold change vs veh, ARL8B / RFU, ZBTB11 / Fold change vs veh, ZBTB11 / RFU, TAMM41 / Fold change vs veh, TAMM41 / RFU, KIAA1704 /// LOC100996395 / Fold change vs veh, KIAA1704 /// LOC100996395 / RFU, ING1 / Fold change vs veh, ING1 / RFU, TRMT61B / Fold change vs veh, TRMT61B / RFU, FUBP3 / Fold change vs veh, FUBP3 / RFU, TP53 / Fold change vs veh, TP53 / RFU, TNKS2 / Fold change vs veh, TNKS2 / RFU, ZFP14 / Fold change vs veh, ZFP14 / RFU, ACTR2 / Fold change vs veh, ACTR2 / RFU, PPP3R1 / Fold change vs veh, PPP3R1 / RFU, PIK3R1 / Fold change vs veh, PIK3R1 / RFU, HNRNPA1 / Fold change vs veh, HNRNPA1 / RFU, RNF170 / Fold change vs veh, RNF170 / RFU, ZNF28 / Fold change vs veh, ZNF28 / RFU, RNGTT / Fold change vs veh, RNGTT / RFU, OGT / Fold change vs veh, OGT / RFU, BRD1 / Fold change vs veh, BRD1 / RFU, MARS / Fold change vs veh, MARS / RFU, ZNF655 / Fold change vs veh, ZNF655 / RFU, FAHD1 / Fold change vs veh, FAHD1 / RFU, BDP1 / Fold change vs veh, BDP1 / RFU, LRRCC1 / Fold change vs veh, LRRCC1 / RFU, ARID1A / Fold change vs veh, ARID1A / RFU, ZNF146 / Fold change vs veh, ZNF146 / RFU, ZNF330 / Fold change vs veh, ZNF330 / RFU, GPN3 / Fold change vs veh, GPN3 / RFU, C9orf123 / Fold change vs veh, C9orf123 / RFU, N4BP2L2 / Fold change vs veh, N4BP2L2 / RFU, ARFIP1 / Fold change vs veh, ARFIP1 / RFU, FAM179B / Fold change vs veh, FAM179B / RFU, BCL10 / Fold change vs veh, BCL10 / RFU, UHRF1BP1L / Fold change vs veh, UHRF1BP1L / RFU, BET1 / Fold change vs veh, BET1 / RFU, CNOT2 / Fold change vs veh, CNOT2 / RFU, ZNF268 / Fold change vs veh, ZNF268 / Fold change vs veh, ZNF507 / RFU, DGCR2 / Fold change vs veh, DGCR2 / RFU, WDSUB1 / Fold change vs veh, WDSUB1 / Fold change vs veh, HSP90B1 /// MIR3652 / RFU, ADSS / Fold change vs veh, ADSS / RFU, GK / Fold change vs veh, GK / RFU, ZNF148 / Fold change vs veh, ZNF148 / RFU, TAF9 / Fold change vs veh, TAF9 / RFU, SLC1A5 / Fold change vs veh, SLC1A5 / RFU, SLMO2 / Fold change vs veh, SLMO2 / RFU, ABCC4 / Fold change vs veh, ABCC4 / RFU, LOC101060439 /// RAP1B / Fold change vs veh, LOC101060439 /// RAP1B / RFU, RFX7 / Fold change vs veh, RFX7 / RFU, GTPBP10 / Fold change vs veh, GTPBP10 / RFU, CNEP1R1 / Fold change vs veh, CNEP1R1 / RFU, BIVM-ERCC5 /// ERCC5 / Fold change vs veh, BIVM-ERCC5 /// ERCC5 / RFU, ILF3 / Fold change vs veh, ILF3 / RFU 11762660_at / Fold change /veh 11762660_at / RFU VCAN (11757783_s_at) / Fold change /veh VCAN (11757783_s_at) / RFU DDX43 (11728927_at) / Fold change /veh DDX43 (11728927_at) / RFU KRT8 (11758188_x_at) / Fold change /veh KRT8 (11758188_x_at) / RFU NKD1 (11759106_at) / Fold change /veh NKD1 (11759106_at) / RFU SRD5A1 (11742802_a_at) / Fold change /veh SRD5A1 (11742802_a_at) / RFU TPSAB1 /// TPSB2 (11721975_s_at) / Fold change /veh TPSAB1 /// TPSB2 (11721975_s_at) / RFU GSTM3 (11746129_a_at) / Fold change /veh GSTM3 (11746129_a_at) / RFU IL23R (11737362_x_at) / Fold change /veh IL23R (11737362_x_at) / RFU TMEM51 (11727254_a_at) / Fold change /veh TMEM51 (11727254_a_at) / RFU PIWIL2 (11732686_x_at) / Fold change /veh PIWIL2 (11732686_x_at) / RFU ORM1 (11744905_x_at) / Fold change /veh ORM1 (11744905_x_at) / RFU CCDC152 (11743942_at) / Fold change /veh CCDC152 (11743942_at) / RFU ECM1 (11717891_a_at) / Fold change /veh ECM1 (11717891_a_at) / RFU IL23R (11748794_a_at) / Fold change /veh IL23R (11748794_a_at) / RFU TNFAIP8L3 (11732012_x_at) / Fold change /veh TNFAIP8L3 (11732012_x_at) / RFU MBOAT4 (11741988_at) / Fold change /veh MBOAT4 (11741988_at) / RFU 11764193_at / Fold change /veh 11764193_at / RFU TMEM53 (11763286_at) / Fold change /veh TMEM53 (11763286_at) / RFU MAGEB2 (11727129_at) / Fold change /veh MAGEB2 (11727129_at) / RFU TMEM200A (11744735_a_at) / Fold change /veh TMEM200A (11744735_a_at) / RFU CCDC152 (11751479_a_at) / Fold change /veh CCDC152 (11751479_a_at) / RFU FAM211A (11726209_a_at) / Fold change /veh FAM211A (11726209_a_at) / RFU RGS16 (11746705_a_at) / Fold change /veh RGS16 (11746705_a_at) / RFU VCAN (11755009_s_at) / Fold change /veh VCAN (11755009_s_at) / RFU RHOB (11743442_s_at) / Fold change /veh RHOB (11743442_s_at) / RFU RGS16 (11720943_a_at) / Fold change /veh RGS16 (11720943_a_at) / RFU RGS16 (11720944_at) / Fold change /veh RGS16 (11720944_at) / RFU, VPS4B / Fold change vs veh, VPS4B / RFU, CREB1 / Fold change vs veh, CREB1 / RFU, DNAJC13 / Fold change vs veh, DNAJC13 / RFU, GNAQ / Fold change vs veh, GNAQ / RFU, CDK5R1 / Fold change vs veh, CDK5R1 / RFU, ZRANB3 / Fold change vs veh, ZRANB3 / RFU, CUL4A / Fold change vs veh, CUL4A / RFU, CCNY / Fold change vs veh, CCNY / RFU, UFL1 / Fold change vs veh, UFL1 / RFU, COG3 / Fold change vs veh, COG3 / RFU, DIAPH2 / Fold change vs veh, DIAPH2 / RFU, SKA2 / Fold change vs veh, SKA2 / RFU, AFF3 / Fold change vs veh, AFF3 / RFU, LMF1 / Fold change vs veh, LMF1 / RFU, IPO11 / Fold change vs veh, IPO11 / RFU, DFFB / Fold change vs veh, DFFB / RFU, FOXP1 / Fold change vs veh, FOXP1 / RFU, CARD8 / Fold change vs veh, CARD8 / RFU, STRN3 / Fold change vs veh, STRN3 / RFU, ADK / Fold change vs veh, ADK / RFU, RASSF2 / Fold change vs veh, RASSF2 / RFU, WIPF1 / Fold change vs veh, WIPF1 / RFU, LARP1B / Fold change vs veh, LARP1B / RFU, RASA1 / Fold change vs veh, RASA1 / RFU, RB1 / Fold change vs veh, RB1 / RFU, PPFIA1 / Fold change vs veh, PPFIA1 / RFU, MAT2A / Fold change vs veh, MAT2A / RFU, CCT5 / Fold change vs veh, CCT5 / RFU, WDR92 / Fold change vs veh, WDR92 / RFU, CUX1 / Fold change vs veh, CUX1 / RFU, TTC7A / Fold change vs veh, TTC7A / RFU, TMEM135 / Fold change vs veh, TMEM135 / RFU, DEPTOR / Fold change vs veh, DEPTOR / RFU, CPM / Fold change vs veh, CPM / RFU, DNAJB6 / Fold change vs veh, DNAJB6 / RFU, CACNA2D3 / Fold change vs veh, CACNA2D3 / RFU, DTX4 / Fold change vs veh, DTX4 / RFU, TFCP2 / Fold change vs veh, TFCP2 / RFU, GMCL1 /// GMCL1P1 / Fold change vs veh, GMCL1 /// GMCL1P1 / RFU, AEBP2 / Fold change vs veh, AEBP2 / RFU, SNHG1 /// SNORD22 /// SNORD25 /// SNORD26 /// SNORD27 /// SNORD28 /// SNORD29 /// SNORD31 / Fold change vs veh, SNHG1 /// SNORD22 /// SNORD25 /// SNORD26 /// SNORD27 /// SNORD28 /// SNORD29 /// SNORD31 / Fold change (Aza/veh), C12orf56 (ProbeSet 11735607_a_at) / Fold change (ACY-1035/veh), C12orf56 (ProbeSet 11735607_a_at) / Fold change (Aza/veh), FGFR1OP (ProbeSet 11751329_s_at) / Fold change (ACY-1035/veh), FGFR1OP (ProbeSet 11751329_s_at) / Fold change (Aza/veh), VPS36 (ProbeSet 11739960_a_at) / Fold change (ACY-1035/veh), VPS36 (ProbeSet 11739960_a_at) / RFU SYPL1 (11715823_x_at) / Fold change /veh SYPL1 (11715823_x_at) / RFU IGFBP7 (11715501_s_at) / Fold change /veh IGFBP7 (11715501_s_at) / RFU REEP3 (11722064_at) / Fold change /veh REEP3 (11722064_at) / RFU IGLL1 (11728026_x_at) / Fold change /veh IGLL1 (11728026_x_at): dose or concentration left out as unconfirmed
# Conditions: ProbeSet 11743510_at; LIST D
structure (smiles),measurement,value
Nc1ccc(-c2cccs2)cc1NC(=O)c1ccc2c(c1)cc(C1CC1)n2CCN1CCOCC1 [ACY-1035],"Fold change vs veh, UFL1",0.85
